Like-named read-outs stand apart in the source and are kept apart here.
Experiments:
[1] = Stability comparison, solids placed openly in a stability test chamber at 25° C. and 65% RH (purity by HPLC, appearance); format: physicochemical; settings: open, calcium salt
Procedure: NMNH is the reduced form of NMN, sensitive to air, easily oxidized, and unstable, making it unsuitable for long-term storage and market promotion. WO2023160405(A1) reported the NMNH disodium salt compound and its crystalline and amorphous forms. […] Such stability fails to meet the shelf-life requirements for commercial products, hindering market promotion. The NMNH calcium salt amorphous solids A/B/C/D were each placed openly in a stability test chamber at 25° C. and 65% RH to evaluate their stability, yielding the data shown in Table 1 and Table 2.

[2] = Hygroscopicity study (water content, KF) at 25° C., 65% RH; format: physicochemical
Procedure: The NMNH calcium salt amorphous solids A/B/C/D were each placed openly in a stability test chamber at 25° C. and 65% RH to evaluate their stability, yielding the data shown in Table 1 and Table 2. […] The amorphous solid of NMNH disodium salt is more unstable in the air. After 1 day of storage, it absorbs water from powder to oil, and the purity drops from 99.30% to 99.02%.

[3] = 25° C., 65% RH, according to WO2023160405(A1), cited from earlier work
[4] = according to WO2023160405(A1); cited from earlier work

Structure (SMILES)	Purity (HPLC, area %) ([1]; 0 day)	Purity (HPLC, area %) ([1]; 5 days)	Purity (HPLC, area %) ([1]; 60 days)	Water content of NMNH calcium salt amorphous solid (KF) ([2]; 0 day)	Water content of NMNH calcium salt amorphous solid (KF) ([2]; 5 days)	Water content of NMNH calcium salt amorphous solid (KF) ([2]; 60 days)	also measured
NC(=O)C1=CN([C@@H]2O[C@H](COP(=O)(O)O)[C@@H](O)[C@H]2O)C=CC1.[Ca+2] [NMNH calcium salt Amorphous form B, reduced β-nicotinamide mononucleotide calcium salt]	99.28%	99.28%	99.28%	1.3%	1.3%	1.3%	–
NC(=O)C1=CN([C@@H]2O[C@H](COP(=O)(O)O)[C@@H](O)[C@H]2O)C=CC1.[Ca+2] [NMNH calcium salt Amorphous form C, reduced β-nicotinamide mononucleotide calcium salt]	99.14%	99.14%	99.13%	1.5%	1.6%	1.5%	–
NC(=O)C1=CN([C@@H]2O[C@H](COP(=O)([O-])[O-])[C@@H](O)[C@H]2O)C=CC1.[Na+].[Na+] [NMNH disodium salt Amorphous form, NMNH disodium salt]	–	–	–	–	–	–	Purity (HPLC, area %) ([3]; 0 day, disodium salt): 99.30%; Purity (HPLC, area %) ([3]; 0 day, listed as NMNH disodium salt amorphous powder, disodium salt): 99.30%; Purity (HPLC, area %) ([3]; 0 day, listed as amorphous solid of NMNH disodium salt, disodium salt): 99.30%; Appearance after storage (powder to oil) ([3]; 1 day): oil; Purity (HPLC, area %) ([3]; 1 day, disodium salt): 99.02%; Purity (HPLC, area %) ([3]; 1 day, listed as NMNH disodium salt amorphous powder, disodium salt): 99.02%; Purity (HPLC, area %) ([3]; 1 day, listed as amorphous solid of NMNH disodium salt, disodium salt): 99.02%
NC(=O)C1=CN([C@@H]2O[C@H](COP(=O)([O-])[O-])[C@@H](O)[C@H]2O)C=CC1.[Na+].[Na+] [NMNH disodium salt Crystal form A, NMNH disodium salt]	–	–	–	–	–	–	Purity (HPLC, area %) ([3]; 0 day, disodium salt): 99.33%; Purity (HPLC, area %) ([3]; 0 day, listed as NMNH disodium salt crystal form A, disodium salt): 99.33%; Purity (HPLC, area %) ([3]; 0 day, listed as NMNH disodium salt crystalline Form A solid, disodium salt): 99.33%; Purity (HPLC, area %) ([3]; 1 day, disodium salt): 99.27%; Purity (HPLC, area %) ([3]; 5 days): 99.01%
NC(=O)C1=CN([C@@H]2O[C@H](COP(=O)([O-])[O-])[C@@H](O)[C@H]2O)C=CC1.[Na+].[Na+] [NMNH disodium salt crystal form B, NMNH disodium salt]	–	–	–	–	–	–	Solid form change when stored in the air [4]: absorb water and transform into crystal form A

Second part, led by results:

Purity (HPLC, area %) ([1]; 0 day)	Purity (HPLC, area %) ([1]; 5 days)	Purity (HPLC, area %) ([1]; 60 days)	Water content of NMNH calcium salt amorphous solid (KF) ([2]; 0 day)	Water content of NMNH calcium salt amorphous solid (KF) ([2]; 5 days)	Water content of NMNH calcium salt amorphous solid (KF) ([2]; 60 days)	Structure (SMILES)	also measured
99.51%	99.50%	99.50%	0.8%	0.8%	0.9%	NC(=O)C1=CN([C@@H]2O[C@H](COP(=O)(O)O)[C@@H](O)[C@H]2O)C=CC1.[Ca+2] [NMNH calcium salt Amorphous form A, reduced β-nicotinamide mononucleotide calcium salt]	–
99.50%	99.49%	99.49%	1.9%	1.9%	1.9%	NC(=O)C1=CN([C@@H]2O[C@H](COP(=O)(O)O)[C@@H](O)[C@H]2O)C=CC1.[Ca+2] [NMNH calcium salt Amorphous form D, reduced β-nicotinamide mononucleotide calcium salt]	–

From patent US20250361259A1, “AMORPHOUS FORM OF REDUCED ß-NICOTINAMIDE MONONUCLEOTIDE CALCIUM SALT, AND PREPARATION METHOD AND USE THEREFOR” (EffePharm (Shanghai) Co., Ltd., priority 2023, published 2025)
